Values of other authors in patent publication US20150342920A1, “DERMATOLOGICAL COMPOSITIONS COMPRISING AT LEAST ONE RETINOID COMPOUND, AN ANTI-IRRITANT COMPOUND AND BENZOYL PEROXIDE” (GALDERMA RESEARCH & DEVELOPMENT, priority 2007, published 2015).

O=C(OOC(=O)c1ccccc1)c1ccccc1 [benzoyl peroxide]
degradation of benzoyl peroxide in solution (in solution, ethanol, propylene glycol and mixtures of PEG 400 and water, depends on type and concentration of solvent): degrades more or less rapidly
degradation of benzoyl peroxide in suspension (in suspension (disperse form) in water and in propylene glycol, after 90 days of storage): not degraded
